# ChEMBL document CHEMBL5214923, “Contemporary mTOR inhibitor scaffolds to diseases breakdown: A patent review (2015-2021)” (Eur J Med Chem, 2022)
# Assays:
# [1] = target: PI3-kinase p110-alpha/p85-alpha (Homo sapiens, UniProt P42336); assay: Inhibition of PI3K p110alpha/p85alpha (unknown origin) using PIP2 as substrate preincubated for 15 mins followed by substrate addition measured after 1 hr in presence of ATP by TR-FRET assay; assay type: protein-complex assay
# mTORC1 [2] = target: T1, mTORC1 (Homo sapiens, UniProt P42345+Q8N122+Q9BVC4); assay: Inhibition of mTORC1 in human MDA-MB-468 cells assessed as measuring phosphorylated P70S6K incubated for 2 to 4 hrs by AlphaLISA assay; assay type: cell-based
# mTORC1 [3] = target: T1, mTORC1; assay: Inhibition of mTORC1 in human MDA-MB-468 cells assessed as measuring phosphorylated 4EBP1 incubated for 2 to 4 hrs by AlphaLISA assay; assay type: cell-based
# mTORC2 [4] = target: T2, mTORC2 (Homo sapiens, UniProt P42345+Q6R327+Q9BPZ7+Q9BVC4); assay: Inhibition of mTORC2 in human MDA-MB-468 cells assessed as measuring phosphorylated AKT incubated for 2 to 4 hrs by AlphaLISA assay; assay type: cell-based
# T2 sequence (Q6R327 whole entry, other chains not shown): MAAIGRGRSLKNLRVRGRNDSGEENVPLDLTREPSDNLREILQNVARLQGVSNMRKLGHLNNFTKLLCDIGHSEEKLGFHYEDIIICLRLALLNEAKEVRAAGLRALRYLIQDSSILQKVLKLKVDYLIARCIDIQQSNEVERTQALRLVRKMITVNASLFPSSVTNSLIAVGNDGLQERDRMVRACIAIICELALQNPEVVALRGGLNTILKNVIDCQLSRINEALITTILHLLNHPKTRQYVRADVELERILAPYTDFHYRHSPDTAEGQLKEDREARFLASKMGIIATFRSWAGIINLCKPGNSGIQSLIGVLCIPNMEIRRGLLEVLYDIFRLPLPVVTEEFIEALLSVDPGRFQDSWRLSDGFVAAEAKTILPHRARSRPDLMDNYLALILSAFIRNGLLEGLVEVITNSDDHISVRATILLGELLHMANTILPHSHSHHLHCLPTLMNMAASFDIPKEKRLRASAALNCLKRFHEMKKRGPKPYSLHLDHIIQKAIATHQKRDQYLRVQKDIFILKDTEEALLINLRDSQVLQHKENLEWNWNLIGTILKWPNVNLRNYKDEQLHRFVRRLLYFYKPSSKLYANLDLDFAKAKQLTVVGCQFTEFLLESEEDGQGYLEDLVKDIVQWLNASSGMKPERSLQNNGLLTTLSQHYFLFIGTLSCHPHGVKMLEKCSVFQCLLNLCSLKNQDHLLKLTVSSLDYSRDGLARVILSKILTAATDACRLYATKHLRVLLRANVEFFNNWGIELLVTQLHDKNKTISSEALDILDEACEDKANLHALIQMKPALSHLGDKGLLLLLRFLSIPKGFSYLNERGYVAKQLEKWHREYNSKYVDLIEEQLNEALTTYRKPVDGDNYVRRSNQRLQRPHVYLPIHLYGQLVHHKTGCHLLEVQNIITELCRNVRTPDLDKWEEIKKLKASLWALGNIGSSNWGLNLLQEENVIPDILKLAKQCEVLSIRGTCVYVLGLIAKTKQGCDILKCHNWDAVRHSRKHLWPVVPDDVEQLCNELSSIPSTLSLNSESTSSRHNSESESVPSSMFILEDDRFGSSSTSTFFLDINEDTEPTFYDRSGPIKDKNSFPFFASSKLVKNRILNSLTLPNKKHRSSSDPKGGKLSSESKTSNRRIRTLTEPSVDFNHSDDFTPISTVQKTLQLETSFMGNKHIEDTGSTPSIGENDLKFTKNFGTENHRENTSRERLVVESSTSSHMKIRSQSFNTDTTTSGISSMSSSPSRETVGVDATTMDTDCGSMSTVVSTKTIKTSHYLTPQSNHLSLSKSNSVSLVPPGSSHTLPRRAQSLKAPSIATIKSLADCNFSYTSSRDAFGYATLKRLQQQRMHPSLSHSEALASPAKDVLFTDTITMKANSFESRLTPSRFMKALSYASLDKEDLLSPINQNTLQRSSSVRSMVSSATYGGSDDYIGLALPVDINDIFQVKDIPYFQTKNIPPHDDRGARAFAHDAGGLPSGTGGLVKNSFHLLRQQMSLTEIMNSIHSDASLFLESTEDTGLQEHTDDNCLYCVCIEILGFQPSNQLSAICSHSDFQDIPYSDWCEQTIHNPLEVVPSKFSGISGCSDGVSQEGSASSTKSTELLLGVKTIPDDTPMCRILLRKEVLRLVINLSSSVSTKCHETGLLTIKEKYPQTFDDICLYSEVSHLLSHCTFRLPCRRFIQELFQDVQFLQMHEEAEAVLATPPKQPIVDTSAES
# T2 sequence (Q9BPZ7 2-522 limits assumed, other chains not shown): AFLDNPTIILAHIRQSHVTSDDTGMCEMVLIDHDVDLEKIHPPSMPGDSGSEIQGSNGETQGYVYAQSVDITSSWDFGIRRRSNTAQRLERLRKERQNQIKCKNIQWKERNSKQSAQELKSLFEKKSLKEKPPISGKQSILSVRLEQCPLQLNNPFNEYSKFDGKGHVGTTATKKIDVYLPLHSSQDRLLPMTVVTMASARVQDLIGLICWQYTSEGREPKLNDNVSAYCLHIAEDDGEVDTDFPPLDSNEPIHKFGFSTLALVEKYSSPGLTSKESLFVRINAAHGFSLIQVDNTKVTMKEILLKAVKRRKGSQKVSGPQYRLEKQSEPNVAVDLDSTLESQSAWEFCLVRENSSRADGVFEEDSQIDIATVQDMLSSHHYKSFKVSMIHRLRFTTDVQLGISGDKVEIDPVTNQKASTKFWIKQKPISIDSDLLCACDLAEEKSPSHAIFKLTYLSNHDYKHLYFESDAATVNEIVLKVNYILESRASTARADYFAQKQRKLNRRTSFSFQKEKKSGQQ
# T2 sequence (Q9BVC4 whole entry, other chains not shown): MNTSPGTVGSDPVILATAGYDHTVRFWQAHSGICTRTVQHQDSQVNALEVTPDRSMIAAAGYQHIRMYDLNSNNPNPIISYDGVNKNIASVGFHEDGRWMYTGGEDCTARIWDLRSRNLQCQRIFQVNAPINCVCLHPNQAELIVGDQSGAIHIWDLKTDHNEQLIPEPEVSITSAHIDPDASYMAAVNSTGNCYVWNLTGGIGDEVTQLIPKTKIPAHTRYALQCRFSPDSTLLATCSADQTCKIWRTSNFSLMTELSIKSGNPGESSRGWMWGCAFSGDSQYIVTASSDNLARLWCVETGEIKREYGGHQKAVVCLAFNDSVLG
# mTORC1 [5] = target: T1, mTORC1; assay: Inhibition of mTORC1 in human PC-3 cells assessed as measuring phosphorylated S6K level incubated for 24 hrs by AlphaLISA assay; assay type: cell-based
# mTORC2 [6] = target: T2, mTORC2; assay: Inhibition of mTORC2 in human PC-3 cells assessed as measuring phosphorylated Akt level incubated for 24 hrs by AlphaLISA assay; assay type: cell-based
# [7] = target: Peptidyl-prolyl cis-trans isomerase FKBP1A (Homo sapiens, UniProt P62942); assay: Binding affinity to FKBP12 (unknown origin) assessed as inhibition constant
# Peptidyl-prolyl cis-trans isomerase FKBP1A, sequence (P62942 whole entry): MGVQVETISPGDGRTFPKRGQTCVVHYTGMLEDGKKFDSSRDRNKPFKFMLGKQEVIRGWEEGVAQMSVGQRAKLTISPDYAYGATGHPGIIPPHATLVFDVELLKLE
# mTORC1 [8] = target: T1, mTORC1; assay: Inhibition of mTORC1 (unknown origin) assessed as measuring phosphorylated p7OS6K level at 0.2 uM relative to control; assay type: protein-complex assay
# mTORC1 [9] = target: T1, mTORC1; assay: Inhibition of mTORC1 (unknown origin) assessed as measuring phosphorylated 4EBP1 level at 1 uM relative to control; assay type: protein-complex assay
# PI3-kinase p110-alpha/p85-alpha, sequence (P27986 whole entry): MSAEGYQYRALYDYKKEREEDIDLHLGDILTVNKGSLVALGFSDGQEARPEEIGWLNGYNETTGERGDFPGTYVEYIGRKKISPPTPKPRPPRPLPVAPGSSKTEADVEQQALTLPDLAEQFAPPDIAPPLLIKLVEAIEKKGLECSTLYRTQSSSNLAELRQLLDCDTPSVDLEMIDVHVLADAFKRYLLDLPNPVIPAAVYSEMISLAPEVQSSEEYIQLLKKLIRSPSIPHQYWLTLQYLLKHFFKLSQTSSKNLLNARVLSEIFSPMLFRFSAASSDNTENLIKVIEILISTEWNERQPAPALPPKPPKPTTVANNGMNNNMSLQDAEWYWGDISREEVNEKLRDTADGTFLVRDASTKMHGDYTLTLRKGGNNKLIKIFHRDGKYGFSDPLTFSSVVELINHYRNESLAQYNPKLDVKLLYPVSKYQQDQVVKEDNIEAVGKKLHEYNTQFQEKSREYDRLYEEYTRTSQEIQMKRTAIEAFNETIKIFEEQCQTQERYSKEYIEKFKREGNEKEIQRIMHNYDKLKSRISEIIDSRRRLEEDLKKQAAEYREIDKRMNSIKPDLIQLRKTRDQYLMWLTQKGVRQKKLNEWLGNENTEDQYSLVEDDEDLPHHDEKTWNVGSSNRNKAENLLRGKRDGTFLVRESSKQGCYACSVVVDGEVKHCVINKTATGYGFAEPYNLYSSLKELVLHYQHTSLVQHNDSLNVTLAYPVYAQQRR
# PI3-kinase p110-alpha/p85-alpha, sequence (P42336 whole entry): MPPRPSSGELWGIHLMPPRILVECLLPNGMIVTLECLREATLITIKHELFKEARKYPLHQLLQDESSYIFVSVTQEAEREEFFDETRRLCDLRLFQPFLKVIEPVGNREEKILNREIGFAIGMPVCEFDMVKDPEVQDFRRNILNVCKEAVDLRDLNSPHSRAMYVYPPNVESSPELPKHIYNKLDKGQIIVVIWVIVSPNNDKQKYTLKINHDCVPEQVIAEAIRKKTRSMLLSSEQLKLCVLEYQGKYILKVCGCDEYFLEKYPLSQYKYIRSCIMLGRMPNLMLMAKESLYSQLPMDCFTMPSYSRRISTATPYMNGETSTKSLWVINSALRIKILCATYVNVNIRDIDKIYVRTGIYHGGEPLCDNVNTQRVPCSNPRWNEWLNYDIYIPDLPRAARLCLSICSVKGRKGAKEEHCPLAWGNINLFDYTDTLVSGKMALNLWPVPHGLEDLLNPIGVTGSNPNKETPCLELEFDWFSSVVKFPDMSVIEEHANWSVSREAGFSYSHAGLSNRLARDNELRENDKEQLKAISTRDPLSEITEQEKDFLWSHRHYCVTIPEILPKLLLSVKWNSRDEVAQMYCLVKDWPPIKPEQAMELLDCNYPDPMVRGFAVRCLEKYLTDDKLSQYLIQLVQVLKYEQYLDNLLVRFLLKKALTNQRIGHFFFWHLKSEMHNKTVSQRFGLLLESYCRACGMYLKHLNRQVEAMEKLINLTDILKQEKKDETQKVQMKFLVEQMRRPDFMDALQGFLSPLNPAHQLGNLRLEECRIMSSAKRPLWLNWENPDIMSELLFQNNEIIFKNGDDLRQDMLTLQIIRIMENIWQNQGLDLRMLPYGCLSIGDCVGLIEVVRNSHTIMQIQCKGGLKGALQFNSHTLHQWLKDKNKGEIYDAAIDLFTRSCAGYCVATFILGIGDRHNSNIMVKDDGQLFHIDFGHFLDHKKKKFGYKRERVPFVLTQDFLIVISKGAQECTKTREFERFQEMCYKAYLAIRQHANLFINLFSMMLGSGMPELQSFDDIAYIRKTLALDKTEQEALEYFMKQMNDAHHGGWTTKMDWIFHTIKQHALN
Structure (SMILES),IC50 [1] [nM],IC50 (mTORC1 [2]) [nM],IC50 (mTORC1 [3]) [nM],IC50 (mTORC2 [4]) [nM],other results
Cc1cc(Oc2nc(-c3ccc(N)nc3)nc(N3CCOCC3)n2)ccc1C(=O)N(C)C,< 1000,,,,
CO[C@H]1C[C@@H]2CC[C@@H](C)[C@@](O)(O2)C(=O)C(=O)N2CCCC[C@H]2C(=O)O[C@H]([C@H](C)C[C@@H]2CC[C@@H](OCc3cccc(-c4cnc(N5CCN(C(=O)CCc6cn(CCOCCOCCC(=O)NCCCCn7nc(-c8ccc9nc(N)oc9c8)c8c(N)ncnc87)nn6)CC5)nc4)c3)[C@H](OC)C2)CC(=O)[C@H](C)/C=C(\C)[C@@H](O)[C@@H](OC)C(=O)[C@H](C)C[C@H](C)C\C=C/C=C/C=C/1C,,≤ 1,≤ 3.16,> 31.6,
CO[C@@H]1C[C@H](C[C@@H](C)[C@@H]2CC(=O)[C@H](C)/C=C(\C)[C@@H](O)[C@@H](OC)C(=O)[C@H](C)C[C@H](C)/C=C/C=C/C=C(\C)C(OCCO)C[C@@H]3CC[C@@H](C)[C@@](O)(O3)C(=O)C(=O)N3CCCC[C@H]3C(=O)O2)CC[C@H]1OCCCN1CCOC(C)(C)C1 (some centres undefined),,,,,IC50 (mTORC1 [5]): < 0.316 nM; IC50 (mTORC2 [6]): > 10000 nM
C\C1=C/C=C/C=C/[C@@H](C)C[C@@H](C)C(=O)C[C@H](O)/C(C)=C/CC([C@H](C)C[C@H]2CC[C@H](O)CC2)OC(=O)[C@@H]2CCCCN2C(=O)C(=O)[C@]2(O)O[C@@H](CC[C@H]2C)C[C@H]1O (some centres undefined),,,,,Ki [7]: 7.7 nM
CO[C@H]1C[C@@H]2CC[C@@H](C)[C@@](O)(O2)C(=O)C(=O)N2CCCC[C@H]2C(=O)O[C@H]([C@H](C)C[C@@H]2CC[C@@H](OCCCN3CCOC(C)(C)C3)[C@H](OC)C2)CC[C@H](C)/C=C(\C)[C@@H](O)[C@@H](OC)C(NOCC(=O)NCCOCCOCCOCCOCCOCCOCCC(=O)N2CCc3cc(Cn4nc(-c5ccc6oc(N)nc6c5)c5c(N)ncnc54)ccc3C2)[C@H](C)C[C@H](C)C\C=C/C=C/C=C/1C (some centres undefined),,≤ 1,≤ 3.16,1000,
CNC(=O)c1cccc(-c2ccc3c(N4CCOC[C@@H]4C)nc(N4CCO[C@@H]5CCCC[C@@H]54)nc3n2)c1,,,,,inhibition (mTORC1 [8]): 109%; inhibition (mTORC1 [9]): 77.8%
C[C@H]1COC[C@H](C)N1c1nc(Oc2ccc(C(=O)N(C)C)cc2)nc(-c2cnc(N)s2)n1,< 1000,,,,
CO[C@H]1C[C@@H]2CC[C@@H](C)[C@@](O)(O2)C(=O)C(=O)N2CCCC[C@H]2C(=O)O[C@H]([C@H](C)C[C@@H]2CC[C@@H](OCCCCc3cn(CCOCCOCCOCCOCCOCCOCCC(=O)NCCCCn4nc(-c5cccc(C(=O)NC6=NCCS6)c5)c5c(N)ncnc54)nn3)[C@H](OC)C2)CC(=O)[C@H](C)/C=C(\C)[C@@H](O)[C@@H](OC)C(=O)[C@H](C)C[C@H](C)C\C=C/C=C/C=C/1C,,≤ 1,≤ 3.16,> 31.6,

# Second part, led by results:
IC50 [1] [nM],IC50 (mTORC1 [2]) [nM],IC50 (mTORC1 [3]) [nM],IC50 (mTORC2 [4]) [nM],Structure (SMILES),other results
< 1000,,,,C[C@H]1COCCN1c1nc(Oc2ccc(C(=O)N(C)C)cc2)nc(-c2cnc(N)s2)n1,
,≤ 1,≤ 3.16,1000,CO[C@H]1C[C@@H]2CC[C@@H](C)[C@@](O)(O2)C(=O)C(=O)N2CCCC[C@H]2C(=O)O[C@H]([C@H](C)C[C@@H]2CC[C@@H](OCCCN3CCOC(C)(C)C3)[C@H](OC)C2)C[C@@H](O)[C@H](C)/C=C(\C)[C@@H](O)[C@@H](OC)C(NOCC(=O)NCCOCCOCCOCCOCCOCCOCCC(=O)N2CCC(n3nc(-c4ccc5oc(N)nc5c4)c4c(N)ncnc43)CC2)[C@H](C)C[C@H](C)C\C=C/C=C/C=C/1C (some centres undefined),
,≤ 1,≤ 3.16,> 31.6,COc1cccc2cc(-c3nc([C@H]4CC[C@H](C(=O)NCCOCCOCCNC(=O)CCOCCOCCOCCOCCn5cc(CCCCO[C@@H]6CC[C@@H](C[C@@H](C)[C@@H]7C[C@@H](OC)[C@H](C)/C=C(\C)[C@@H](O)[C@@H](OC)C(=O)[C@H](C)C[C@H](C)C\C=C/C=C/C=C(\C)[C@@H](OC)C[C@@H]8CC[C@@H](C)[C@@](O)(O8)C(=O)C(=O)N8CCCC[C@H]8C(=O)O7)C[C@H]6OC)nn5)CC4)n4ncnc(N)c34)[nH]c12,
< 1000,,,,CN(C)C(=O)c1ccc(Oc2nc(-c3cnc(N)cc3C(F)(F)F)nc(N3CCOCC3)n2)c(F)c1,
